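A five-concentration, 48-hour dose response in 96-well plates underlies each endpoint, interpolated linearly between surrounding concentrations. GI50: concentration for 50% inhibition of growth.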 Active and inactive are the calls of the source. No stated cut-off is given here; in the data, active = GI50 up to about 1.1 µM and inactive = higher.
Assays:
Test in all cases: NCI tumour cell line growth inhibition, 48 h
[1] = tested on: LOX IMVI
[2] = tested on: A549
[3] = tested on: HCT-15
[4] = tested on: MOLT-4
[5] = tested on: UACC-257
[6] = tested on: HOP-62
[7] = tested on: A498
[8] = tested on: NCI-H460
[9] = tested on: RPMI-8226
[10] = tested on: MDA-MB-435
[11] = tested on: 786-0
[12] = tested on: HL-60
[13] = tested on: SK-MEL-2
[14] = tested on: HCC 2998
[15] = tested on: OVCAR-5
[16] = tested on: OVCAR-3
[17] = tested on: COLO 205
[18] = tested on: NCI/ADR-RES
[19] = tested on: HT-29
[20] = tested on: SN12C
[21] = tested on: SNB-75
[22] = tested on: HOP-92
[23] = tested on: SK-MEL-5
[24] = tested on: MDA-MB-231
[25] = tested on: PC-3
[26] = tested on: M14
[27] = tested on: RXF 393
[28] = tested on: SK-MEL-28
[29] = tested on: U-251
[30] = tested on: SF-268
[31] = tested on: ACHN
[32] = tested on: SF-295
[33] = tested on: SK-OV-3
[34] = tested on: EKVX
[35] = tested on: UO-31
[36] = tested on: HCT-116
[37] = tested on: BT-549
[38] = tested on: SNB-19
[39] = tested on: Malme-3M
[40] = tested on: T47D
[41] = tested on: SR
[42] = tested on: OVCAR-4
[43] = tested on: MDA-N
[44] = tested on: SW-620
[45] = tested on: TK-10
[46] = tested on: CAKI-1
[47] = tested on: DU-145
[48] = tested on: CCRF-CEM
[49] = tested on: K562
[50] = tested on: IGROV-1
[51] = tested on: NCI-H23
[52] = tested on: KM12
[53] = tested on: MCF7
[54] = tested on: UACC-62
[55] = tested on: OVCAR-8
[56] = tested on: NCI-H226
[57] = tested on: NCI-H522
[58] = tested on: SF-539

With `Cn1c2c(c3ccccc31)CC(=O)N1CCCC(C1)CC21OCCO1` (stereo not given) the GI50 [1] was > 100 µM (inactive), the GI50 [2] was > 100 µM (inactive) and the GI50 [3] was > 100 µM. The GI50 [4] was > 100 µM (inactive), the GI50 [5] was > 100 µM (inactive) and the GI50 [6] was > 100 µM (inactive). The GI50 [7] was > 100 µM (inactive), the GI50 [8] was > 100 µM (inactive) and the GI50 [9] was > 100 µM (inactive). For the same compound, the GI50 [10] was > 100 µM (inactive), the GI50 [11] was > 100 µM (inactive) and the GI50 [12] was > 100 µM (inactive). The GI50 [13] was > 100 µM (inactive), the GI50 [14] was > 100 µM (inactive) and the GI50 [15] was > 100 µM (inactive). The GI50 [16] was > 100 µM (inactive), the GI50 [17] was > 100 µM (inactive) and the GI50 [18] was > 100 µM (inactive). The GI50 [19] was > 100 µM (inactive), the GI50 [20] was 38.2 µM (inactive) and the GI50 [21] was > 100 µM (inactive). The GI50 [22] was > 100 µM (inactive), the GI50 [23] was > 100 µM (inactive) and the GI50 [24] was > 100 µM (inactive). For the same compound, the GI50 [25] was > 100 µM (inactive), the GI50 [26] was > 100 µM (inactive) and the GI50 [27] was 13.6 µM (inactive). The GI50 [28] was > 100 µM (inactive), the GI50 [29] was > 100 µM (inactive) and the GI50 [30] was > 100 µM (inactive). For the same compound, the GI50 [31] was > 100 µM (inactive), the GI50 [32] was > 100 µM (inactive) and the GI50 [33] was > 100 µM (inactive). For the same compound, the GI50 [34] was > 100 µM (inactive), the GI50 [35] was > 100 µM (inactive) and the GI50 [36] was 41.7 µM (inactive). For the same compound, the GI50 [37] was > 100 µM (inactive), the GI50 [38] was > 100 µM (inactive) and the GI50 [39] was > 100 µM (inactive). For the same compound, the GI50 [40] was > 100 µM (inactive), the GI50 [41] was > 100 µM (inactive) and the GI50 [42] was > 100 µM (inactive). For the same compound, the GI50 [43] was 33.5 µM (inactive), the GI50 [44] was > 100 µM (inactive) and the GI50 [45] was > 100 µM (inactive). The GI50 [46] was > 100 µM (inactive), the GI50 [47] was > 100 µM (inactive) and the GI50 [48] was > 100 µM (inactive). The GI50 [49] was > 100 µM (inactive), the GI50 [50] was > 100 µM (inactive) and the GI50 [51] was > 100 µM (inactive). The GI50 [52] was > 100 µM (inactive), the GI50 [53] was > 100 µM (inactive) and the GI50 [54] was > 100 µM (inactive). For the same compound, the GI50 [55] was > 100 µM (inactive) and the GI50 [56] was > 100 µM (inactive).
With `CSc1n[n+](C)cc(N)c1N` the GI50 [1] was > 100 µM (inactive), the GI50 [2] was > 100 µM (inactive) and the GI50 [3] was > 100 µM. The GI50 [4] was > 100 µM (inactive), the GI50 [5] was 52 µM (inactive) and the GI50 [6] was > 100 µM (inactive). For the same compound, the GI50 [7] was > 100 µM (inactive), the GI50 [9] was > 100 µM (inactive) and the GI50 [10] was > 100 µM (inactive). The GI50 [11] was > 100 µM (inactive), the GI50 [12] was 51.9 µM (inactive) and the GI50 [13] was > 100 µM (inactive). For the same compound, the GI50 [14] was > 100 µM (inactive), the GI50 [15] was > 100 µM (inactive) and the GI50 [16] was > 100 µM (inactive). For the same compound, the GI50 [17] was > 100 µM (inactive), the GI50 [18] was > 100 µM (inactive) and the GI50 [19] was > 100 µM (inactive). The GI50 [20] was > 100 µM (inactive), the GI50 [21] was > 100 µM (inactive) and the GI50 [22] was 17.8 µM (inactive). For the same compound, the GI50 [23] was > 100 µM (inactive), the GI50 [24] was > 100 µM (inactive) and the GI50 [25] was > 100 µM (inactive). For the same compound, the GI50 [26] was > 100 µM (inactive), the GI50 [28] was > 100 µM (inactive) and the GI50 [57] was > 100 µM (inactive). For the same compound, the GI50 [29] was > 100 µM (inactive), the GI50 [58] was > 100 µM (inactive) and the GI50 [31] was > 100 µM (inactive). The GI50 [32] was > 100 µM (inactive), the GI50 [33] was > 100 µM (inactive) and the GI50 [34] was > 100 µM (inactive). For the same compound, the GI50 [35] was 88.9 µM (inactive), the GI50 [36] was > 100 µM (inactive) and the GI50 [37] was 87.1 µM (inactive). For the same compound, the GI50 [38] was 29.9 µM (inactive), the GI50 [39] was 36.1 µM (inactive) and the GI50 [40] was > 100 µM (inactive). The GI50 [41] was > 100 µM (inactive), the GI50 [42] was > 100 µM (inactive) and the GI50 [43] was > 100 µM (inactive). For the same compound, the GI50 [44] was > 100 µM (inactive), the GI50 [45] was > 100 µM (inactive) and the GI50 [46] was > 100 µM (inactive). For the same compound, the GI50 [48] was > 100 µM (inactive), the GI50 [49] was 39 µM (inactive) and the GI50 [50] was > 100 µM (inactive). For the same compound, the GI50 [51] was > 100 µM (inactive), the GI50 [52] was > 100 µM (inactive) and the GI50 [53] was > 100 µM (inactive). The GI50 [54] was > 100 µM (inactive), the GI50 [55] was > 100 µM (inactive) and the GI50 [56] was > 100 µM (inactive).

Source: ChEMBL document CHEMBL1201862, “PubChem BioAssay data set” (2004)
